According to article PMC7261188 (Nucleic Acids Research, 2020):
pKd: −log10 of the molar value.

Biological target: SFTSV CBD (cap-binding domain of SFTSV L protein) (Severe fever with thrombocytopenia syndrome virus, UniProt I0DF35)
Experiment: biochemical

SFTSV CBD (cap-binding domain of SFTSV L protein), sequence (I0DF35 1695-1810 limits assumed): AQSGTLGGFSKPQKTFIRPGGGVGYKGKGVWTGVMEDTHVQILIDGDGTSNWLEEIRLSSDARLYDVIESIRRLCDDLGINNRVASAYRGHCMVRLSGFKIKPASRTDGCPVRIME

C[n+]1cn([C@@H]2O[C@H](COP(=O)(O)OP(=O)(O)OP(=O)(O)O)[C@@H](O)[C@H]2O)c2nc(N)[nH]c(=O)c21 [m^7GTP]
pKd: ~3.86
